According to ChEMBL document CHEMBL4804286, “3-amino-4-(4-(4 (dimethylcarbamoyl) phenyl)-1,4-diazepan-1-yl) thieno [2,3-b] pyridine-2-carboxamide for use in cancer therapy and formulations comprising the same” (2020):
Values joined by “and” are separate entries in the source; they are usually repeats but may differ in a detail not shown here. Identical values can stand only once. Active and inactive are the calls of the source. No cut-off for these calls is given here.

Experiments:
[1] = target: Casein kinase I isoform epsilon (Homo sapiens) (UniProt P49674); conditions: INHIBITOR, dose 2000.0 nM
Description: Inhibition of human CSNK1E at 2000 nM by KINOMEscan assay

[2] = target: NUAK family SNF1-like kinase 2 (Homo sapiens) (UniProt Q9H093); assay: Inhibition of human SNARK assessed as percent of control at 2000 nM by KINOMEscan assay relative to control; set-up: scale not given: the % may be the effect or the level left
[3] = target: Serine/threonine-protein kinase 26 (Homo sapiens) (UniProt Q9P289); assay: Inhibition of human MST4 assessed as percent of control at 2000 nM by KINOMEscan assay relative to control; set-up: scale not given: the % may be the effect or the level left
[4] = target: MAP/microtubule affinity-regulating kinase 3 (Homo sapiens) (UniProt P27448); assay: Inhibition of human MARK3 assessed as percent of control at 2000 nM by KINOMEscan assay relative to control; set-up: scale not given: the % may be the effect or the level left
[5] = test system: Epidermal growth factor receptor (Homo sapiens), P00533 [L861Q]; assay: Inhibition of human EGFR L861Q mutant assessed as percent of control at 2000 nM by KINOMEscan assay relative to control; set-up: scale not given: the % may be the effect or the level left
[6] = target: Hormonally up-regulated neu tumor-associated kinase (Homo sapiens) (UniProt P57058); assay: Inhibition of human HUNK assessed as percent of control at 2000 nM by KINOMEscan assay relative to control; set-up: scale not given: the % may be the effect or the level left
[7] = target: Tyrosine-protein kinase Tec (Homo sapiens) (UniProt P42680); assay: Inhibition of human TEC assessed as percent of control at 2000 nM by KINOMEscan assay relative to control; set-up: scale not given: the % may be the effect or the level left
[8] = target: Bone morphogenetic protein receptor type-2 (Homo sapiens) (UniProt Q13873); assay: Inhibition of human BMPR2 assessed as percent of control at 2000 nM by KINOMEscan assay relative to control; set-up: scale not given: the % may be the effect or the level left
[9] = test system: Leucine-rich repeat serine/threonine-protein kinase 2 (Homo sapiens), Q5S007 [G2019S]; assay: Inhibition of human LRRK2 G2019S mutant assessed as percent of control at 2000 nM by KINOMEscan assay relative to control; set-up: scale not given: the % may be the effect or the level left
[10] = test system: Mast/stem cell growth factor receptor Kit (Homo sapiens), P10721 [D816V]; assay: Inhibition of human KIT D816V mutant assessed as percent of control at 2000 nM by KINOMEscan assay relative to control; set-up: scale not given: the % may be the effect or the level left
[11] = target: Dual specificity testis-specific protein kinase 1 (Homo sapiens) (UniProt Q15569); assay: Inhibition of human TESK1 assessed as percent of control at 2000 nM by KINOMEscan assay relative to control; set-up: scale not given: the % may be the effect or the level left
[12] = target: Calcium/calmodulin-dependent protein kinase kinase 2 (Homo sapiens) (UniProt Q96RR4); assay: Inhibition of human CAMKK2 assessed as percent of control at 2000 nM by KINOMEscan assay relative to control; set-up: scale not given: the % may be the effect or the level left
CWR22R = assay: Antitumor activity against human 22Rv1 cells expressing AR-V7 xenografted in male nude mouse assessed as suppression of tumor growth at 50 mg/kg, administered once a day for 40 days; assay type: functional, organism-based
[13] = target: Cyclin-dependent kinase 8 (Homo sapiens) (UniProt P49336); conditions: INHIBITOR, dose 2000.0 nM
Description: Inhibition of human CDK8 at 2000 nM by KINOMEscan assay

[14] = test system: Mast/stem cell growth factor receptor Kit (Homo sapiens), P10721 [L576P]; assay: Inhibition of human KIT L576P mutant assessed as percent of control at 2000 nM by KINOMEscan assay relative to control; set-up: scale not given: the % may be the effect or the level left
[15] = target: Mitogen-activated protein kinase kinase kinase 2 (Homo sapiens) (UniProt Q9Y2U5); assay: Inhibition of human MAP3K2 assessed as percent of control at 2000 nM by KINOMEscan assay relative to control; set-up: scale not given: the % may be the effect or the level left
[16] = target: Serine/threonine-protein kinase 3 (Homo sapiens) (UniProt Q13188); assay: Inhibition of human MST2 assessed as percent of control at 2000 nM by KINOMEscan assay relative to control; set-up: scale not given: the % may be the effect or the level left
[17] = target: Serine/threonine-protein kinase pim-3 (Homo sapiens) (UniProt Q86V86); assay: Inhibition of human PIM3 assessed as percent of control at 2000 nM by KINOMEscan assay relative to control; set-up: scale not given: the % may be the effect or the level left
[18] = target: Phosphatidylinositol 4-phosphate 5-kinase type-1 gamma (Homo sapiens) (UniProt O60331); assay: Inhibition of human PIP5K1C assessed as percent of control at 2000 nM by KINOMEscan assay relative to control; set-up: scale not given: the % may be the effect or the level left
[19] = test system: Tyrosine-protein kinase ABL1 (Homo sapiens), P00519 [T315I]; assay: Inhibition of phosphorylated human ABL1 T315I mutant assessed as percent of control at 2000 nM by KINOMEscan assay relative to control; set-up: scale not given: the % may be the effect or the level left
[20] = target: Tyrosine-protein kinase Fgr (Homo sapiens) (UniProt P09769); assay: Inhibition of human FGR assessed as percent of control at 2000 nM by KINOMEscan assay relative to control; set-up: scale not given: the % may be the effect or the level left
[21] = target: Maternal embryonic leucine zipper kinase (Homo sapiens) (UniProt Q14680); assay: Inhibition of human MELK assessed as percent of control at 2000 nM by KINOMEscan assay relative to control; set-up: scale not given: the % may be the effect or the level left
[22] = target: Serine/threonine-protein kinase PRP4 homolog (Homo sapiens) (UniProt Q13523); assay: Inhibition of human PRP4 assessed as percent of control at 2000 nM by KINOMEscan assay relative to control; set-up: scale not given: the % may be the effect or the level left
[23] = test system: Epidermal growth factor receptor (Homo sapiens), P00533 [UNDEFINED MUTATION]; assay: Inhibition of human EGFR L747-S752del/P753S double mutant assessed as percent of control at 2000 nM by KINOMEscan assay relative to control; set-up: scale not given: the % may be the effect or the level left
[24] = target: Serine/threonine-protein kinase LATS2 (Homo sapiens) (UniProt Q9NRM7); assay: Inhibition of human LATS2 assessed as percent of control at 2000 nM by KINOMEscan assay relative to control; set-up: scale not given: the % may be the effect or the level left
[25] = target: Serine/threonine-protein kinase STK11 (Homo sapiens) (UniProt Q15831); assay: Inhibition of human LKB1 assessed as percent of control at 2000 nM by KINOMEscan assay relative to control; set-up: scale not given: the % may be the effect or the level left
[26] = target: Cyclin-dependent kinase 19 (Homo sapiens) (UniProt Q9BWU1); conditions: INHIBITOR, dose 2000.0 nM
Description: Inhibition of human CDK19 at 2000 nM by KINOMEscan assay

[27] = target: Serine/threonine-protein kinase Sgk3 (Homo sapiens) (UniProt Q96BR1); assay: Inhibition of human SGK3 assessed as percent of control at 2000 nM by KINOMEscan assay relative to control; set-up: scale not given: the % may be the effect or the level left
[28] = target: Citron Rho-interacting kinase (Homo sapiens) (UniProt O14578); assay: Inhibition of human CIT assessed as percent of control at 2000 nM by KINOMEscan assay relative to control; set-up: scale not given: the % may be the effect or the level left
[29] = target: Serine/threonine-protein kinase DCLK1 (Homo sapiens) (UniProt O15075); assay: Inhibition of human DCAMKL1 assessed as percent of control at 2000 nM by KINOMEscan assay relative to control; set-up: scale not given: the % may be the effect or the level left
[30] = target: Mitogen-activated protein kinase 1 (Homo sapiens) (UniProt P28482); assay: Inhibition of human ERK2 assessed as percent of control at 2000 nM by KINOMEscan assay relative to control; set-up: scale not given: the % may be the effect or the level left
Sequence of Mitogen-activated protein kinase 1 (Homo sapiens) (P28482 whole entry): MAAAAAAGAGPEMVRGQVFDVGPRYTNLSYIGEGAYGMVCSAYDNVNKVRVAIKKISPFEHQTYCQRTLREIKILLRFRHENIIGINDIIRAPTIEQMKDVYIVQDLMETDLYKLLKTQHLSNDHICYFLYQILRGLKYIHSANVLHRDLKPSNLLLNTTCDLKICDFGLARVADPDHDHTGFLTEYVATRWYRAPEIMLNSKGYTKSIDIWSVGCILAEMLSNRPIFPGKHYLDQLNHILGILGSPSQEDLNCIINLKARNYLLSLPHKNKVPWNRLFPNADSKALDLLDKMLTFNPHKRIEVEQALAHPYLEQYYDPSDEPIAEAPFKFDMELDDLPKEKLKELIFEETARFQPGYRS

Sequence of Maternal embryonic leucine zipper kinase (Homo sapiens) (Q14680 whole entry, looked up): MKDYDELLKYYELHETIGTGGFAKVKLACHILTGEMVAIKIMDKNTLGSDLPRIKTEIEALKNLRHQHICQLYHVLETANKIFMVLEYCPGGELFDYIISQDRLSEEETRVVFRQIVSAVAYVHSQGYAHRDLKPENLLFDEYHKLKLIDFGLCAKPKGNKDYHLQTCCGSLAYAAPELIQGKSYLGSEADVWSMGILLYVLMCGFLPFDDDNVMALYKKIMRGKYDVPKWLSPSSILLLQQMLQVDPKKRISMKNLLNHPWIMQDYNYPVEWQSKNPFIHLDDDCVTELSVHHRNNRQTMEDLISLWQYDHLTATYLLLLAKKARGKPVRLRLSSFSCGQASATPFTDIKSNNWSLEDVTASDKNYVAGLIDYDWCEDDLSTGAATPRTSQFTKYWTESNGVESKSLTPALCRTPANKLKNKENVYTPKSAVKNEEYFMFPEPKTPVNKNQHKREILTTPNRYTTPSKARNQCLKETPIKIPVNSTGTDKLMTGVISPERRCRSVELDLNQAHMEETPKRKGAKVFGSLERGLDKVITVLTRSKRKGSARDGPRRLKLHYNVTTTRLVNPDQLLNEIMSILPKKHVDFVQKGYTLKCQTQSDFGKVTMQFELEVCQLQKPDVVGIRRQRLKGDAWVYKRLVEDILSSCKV
Sequence of Dual specificity testis-specific protein kinase 1 (Homo sapiens) (Q15569 whole entry, looked up): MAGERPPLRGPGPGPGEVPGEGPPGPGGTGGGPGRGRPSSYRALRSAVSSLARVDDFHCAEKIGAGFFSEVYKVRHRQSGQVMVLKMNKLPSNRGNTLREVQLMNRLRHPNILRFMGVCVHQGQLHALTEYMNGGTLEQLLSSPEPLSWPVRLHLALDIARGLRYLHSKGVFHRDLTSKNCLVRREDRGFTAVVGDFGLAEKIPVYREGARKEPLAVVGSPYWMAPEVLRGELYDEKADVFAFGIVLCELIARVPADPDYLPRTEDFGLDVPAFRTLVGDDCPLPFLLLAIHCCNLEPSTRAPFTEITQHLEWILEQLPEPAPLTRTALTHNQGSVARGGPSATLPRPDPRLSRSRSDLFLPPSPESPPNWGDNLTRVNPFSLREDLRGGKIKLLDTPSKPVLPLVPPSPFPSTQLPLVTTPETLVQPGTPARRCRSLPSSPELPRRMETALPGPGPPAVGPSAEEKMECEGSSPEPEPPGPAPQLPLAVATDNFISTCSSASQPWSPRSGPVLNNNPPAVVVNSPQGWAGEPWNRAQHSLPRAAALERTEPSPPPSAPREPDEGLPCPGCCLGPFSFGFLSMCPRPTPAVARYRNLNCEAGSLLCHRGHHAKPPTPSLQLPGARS
Sequence of Mast/stem cell growth factor receptor Kit (Homo sapiens), P10721 [L576P] (P10721 whole entry L576P): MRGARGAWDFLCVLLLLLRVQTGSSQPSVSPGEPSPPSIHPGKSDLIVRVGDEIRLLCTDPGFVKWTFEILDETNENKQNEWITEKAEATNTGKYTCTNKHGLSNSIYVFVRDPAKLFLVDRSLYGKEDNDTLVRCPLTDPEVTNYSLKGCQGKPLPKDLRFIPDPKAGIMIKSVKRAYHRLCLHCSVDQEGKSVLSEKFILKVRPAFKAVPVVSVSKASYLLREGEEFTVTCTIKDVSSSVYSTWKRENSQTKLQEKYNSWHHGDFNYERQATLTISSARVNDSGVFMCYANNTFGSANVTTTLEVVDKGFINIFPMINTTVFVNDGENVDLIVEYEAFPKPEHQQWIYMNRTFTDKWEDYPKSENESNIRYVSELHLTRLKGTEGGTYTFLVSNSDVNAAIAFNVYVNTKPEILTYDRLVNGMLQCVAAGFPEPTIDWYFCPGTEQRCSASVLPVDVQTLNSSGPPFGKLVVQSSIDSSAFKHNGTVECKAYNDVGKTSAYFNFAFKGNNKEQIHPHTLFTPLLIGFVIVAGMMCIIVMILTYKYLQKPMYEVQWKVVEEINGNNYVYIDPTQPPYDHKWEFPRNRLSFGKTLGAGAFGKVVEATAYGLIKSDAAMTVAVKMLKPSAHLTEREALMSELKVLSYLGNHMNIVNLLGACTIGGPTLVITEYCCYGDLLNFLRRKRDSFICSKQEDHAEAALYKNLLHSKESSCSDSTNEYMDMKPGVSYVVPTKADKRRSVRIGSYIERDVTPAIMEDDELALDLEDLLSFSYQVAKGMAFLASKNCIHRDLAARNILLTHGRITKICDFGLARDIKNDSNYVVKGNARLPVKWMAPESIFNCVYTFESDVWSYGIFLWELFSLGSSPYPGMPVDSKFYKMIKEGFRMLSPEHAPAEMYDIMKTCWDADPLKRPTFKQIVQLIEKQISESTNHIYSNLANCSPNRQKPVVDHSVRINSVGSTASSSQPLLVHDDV
Sequence of Serine/threonine-protein kinase 3 (Homo sapiens) (Q13188 whole entry): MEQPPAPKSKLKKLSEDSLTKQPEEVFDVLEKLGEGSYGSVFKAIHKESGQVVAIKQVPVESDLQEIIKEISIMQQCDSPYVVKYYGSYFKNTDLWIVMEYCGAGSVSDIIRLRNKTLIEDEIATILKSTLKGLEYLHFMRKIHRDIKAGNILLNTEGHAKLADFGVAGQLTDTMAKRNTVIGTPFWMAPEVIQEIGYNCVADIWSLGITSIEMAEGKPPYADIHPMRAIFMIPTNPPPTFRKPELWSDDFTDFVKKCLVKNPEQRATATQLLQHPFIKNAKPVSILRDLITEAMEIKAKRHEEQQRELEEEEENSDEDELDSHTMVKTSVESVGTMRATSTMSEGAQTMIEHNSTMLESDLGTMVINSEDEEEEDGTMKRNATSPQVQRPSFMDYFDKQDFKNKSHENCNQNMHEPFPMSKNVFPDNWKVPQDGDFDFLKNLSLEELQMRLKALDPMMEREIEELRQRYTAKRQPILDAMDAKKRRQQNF
Sequence of Tyrosine-protein kinase Fgr (Homo sapiens) (P09769 2-529 limits assumed): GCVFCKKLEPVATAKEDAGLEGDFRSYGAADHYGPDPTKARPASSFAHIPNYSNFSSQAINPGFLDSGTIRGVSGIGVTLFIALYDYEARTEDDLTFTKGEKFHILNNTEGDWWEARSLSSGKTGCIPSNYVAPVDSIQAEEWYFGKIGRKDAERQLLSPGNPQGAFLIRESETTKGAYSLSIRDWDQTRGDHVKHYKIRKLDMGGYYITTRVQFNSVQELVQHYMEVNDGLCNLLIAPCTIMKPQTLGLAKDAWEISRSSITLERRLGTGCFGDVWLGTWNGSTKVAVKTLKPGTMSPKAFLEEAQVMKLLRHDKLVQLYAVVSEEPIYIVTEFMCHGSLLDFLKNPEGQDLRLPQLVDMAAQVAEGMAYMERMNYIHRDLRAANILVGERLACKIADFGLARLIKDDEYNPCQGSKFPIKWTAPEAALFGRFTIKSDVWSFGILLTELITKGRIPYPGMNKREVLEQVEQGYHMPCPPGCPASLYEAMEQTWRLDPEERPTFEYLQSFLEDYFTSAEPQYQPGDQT
Sequence of Serine/threonine-protein kinase PRP4 homolog (Homo sapiens) (Q13523 whole entry): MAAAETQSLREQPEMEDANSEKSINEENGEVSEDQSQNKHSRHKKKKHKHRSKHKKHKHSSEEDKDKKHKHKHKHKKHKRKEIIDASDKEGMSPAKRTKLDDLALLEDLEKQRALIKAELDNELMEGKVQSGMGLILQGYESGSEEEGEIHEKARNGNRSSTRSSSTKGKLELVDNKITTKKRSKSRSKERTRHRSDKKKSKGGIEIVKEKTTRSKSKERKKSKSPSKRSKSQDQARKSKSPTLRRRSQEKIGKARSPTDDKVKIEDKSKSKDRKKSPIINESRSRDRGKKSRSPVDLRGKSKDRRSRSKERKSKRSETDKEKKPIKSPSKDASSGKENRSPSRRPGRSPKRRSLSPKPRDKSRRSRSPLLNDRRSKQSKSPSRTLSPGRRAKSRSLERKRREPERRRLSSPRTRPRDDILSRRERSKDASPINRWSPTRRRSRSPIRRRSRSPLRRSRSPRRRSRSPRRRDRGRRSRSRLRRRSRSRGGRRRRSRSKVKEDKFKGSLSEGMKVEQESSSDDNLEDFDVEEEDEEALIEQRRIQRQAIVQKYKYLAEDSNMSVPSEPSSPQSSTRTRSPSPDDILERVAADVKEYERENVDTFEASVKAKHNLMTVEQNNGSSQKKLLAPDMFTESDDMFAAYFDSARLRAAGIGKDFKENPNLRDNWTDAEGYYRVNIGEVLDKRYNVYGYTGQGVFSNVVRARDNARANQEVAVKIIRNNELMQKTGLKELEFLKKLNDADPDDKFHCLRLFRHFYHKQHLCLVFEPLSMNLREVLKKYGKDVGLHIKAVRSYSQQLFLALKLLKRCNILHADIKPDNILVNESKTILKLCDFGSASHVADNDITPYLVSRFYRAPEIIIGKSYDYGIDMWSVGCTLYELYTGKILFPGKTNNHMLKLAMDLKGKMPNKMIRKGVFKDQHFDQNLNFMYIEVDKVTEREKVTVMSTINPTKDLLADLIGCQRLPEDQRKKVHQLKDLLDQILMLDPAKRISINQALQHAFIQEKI

CN(C)C(=O)c1ccc(N2CCCN(c3ccnc4sc(C(N)=O)c(N)c34)CC2)cc1
inhibition [1]: > 65%
Activity [2]: 100% and 78%
Activity [3]: 95% and 89%
Activity [4]: 98% and 100%
Activity [5]: 78% and 100%
Activity [6]: 99% and 100%
Activity [7]: 91% and 81%
Activity [8]: 79% and 88%
Activity [9]: 90% and 76%
Activity [10]: 93% and 79%
Activity [11]: 83% and 100%
Activity [12]: 100% and 87%
Activity (CWR22R): Active
inhibition [13]: > 65%
Activity [14]: 96% and 75%
Activity [15]: 98% and 86%
Activity [16]: 100% and 84%
Activity [17]: 89% and 98%
Activity [18]: 64%
Activity ([18]; INHIBITOR): 25%
Activity [19]: 100% and 85%
Activity [20]: 100%
Activity [21]: 75% and 84%
Activity [22]: 100% and 88%
Activity [23]: 99% and 100%
Activity [24]: 94%
Activity ([24]; INHIBITOR): 31%
Activity [25]: 100% and 87%
inhibition [26]: > 65%
Activity [27]: 79% and 80%
Activity [28]: 51% and 65%
Activity [29]: 100% and 89%
Activity [30]: 78% and 92%
